The results in this text go back to PubChem BioAssay AID2305 (GlaxoSmithKline (GSK), 2010).

The structures appear in SMILES notation.

As a reminder, the IC50 is the concentration at which inhibition is half-maximal. Read a high IC50 as weaker potency.

This experiment concerns P. falciparum 3D7 growth, pLDH absorbance. Nature of the experiment: P. falciparum 3D7 growth inhibition, dose response, strain 3D7 (AID 2305).

Consider `Nc1c2c(nc3ccc(Oc4ccc(Br)cc4Br)cc13)CCCC2`, for which the IC50 was determined as 0.86 µM.
Compound `Cc1cc(Nc2nc(Nc3cccc(Cl)c3)nc3ccccc23)n[nH]1` registered an IC50 of 0.29 µM.
In the case of `Nc1c2ccccc2nc2ccc(Cl)cc12` it was 0.81 µM; in that of `CC(C)(C)OC(=O)N[C@@H](Cc1ccccc1)C(=O)Nc1cccc(-c2cccc(NC(=O)[C@H](Cc3ccccc3)NC(=O)OC(C)(C)C)c2)c1`, 0.61 µM; in that of `O=C(Nc1ccc(-c2ccccc2)s1)N[C@H]1CCN(Cc2ccc(OCCCN3CCCCC3)cc2)C1`, 0.74 µM.
In the case of `O=C(Nc1cccc(-c2ccc(-c3nc4ccc(C(F)(F)F)cc4[nH]3)cc2)c1)c1csnn1`, the IC50 was determined as 0.69 µM.
With `Cc1cc(NCCCN2CCCC2=O)n2c(nc3ccccc32)c1C#N`, the IC50 was determined as 0.86 µM. This IC50 and that of the compound before are within 1.5-fold of each other.
Turning to `CC1(C)N=C(N)NC(Nc2ccc(F)c(F)c2)=N1`, the IC50 was determined as 0.05 µM.
In turn, `COc1cc(NC(=O)c2cc3c(C)nn(-c4cccc(C(F)(F)F)c4)c3s2)cc(OC)c1OC` displayed an IC50 of 0.8 µM.
The compound `CC(C)Cn1cc(C2CCN(CCN3CCC(CNC(=O)c4ccc(-c5ccc(C#N)cc5)cc4)CC3)CC2)c2ccccc21` displayed an IC50 of 0.79 µM.
In the case of `Cc1cccc2[nH]c(-c3ccc(-c4ccc(NC(=O)CN5CCN(C)CC5)cc4)s3)nc12` it was 1.02 µM; in that of `COc1cc(/C=C/C(=O)NC2CCC(N3CCC(c4ccccc4C)CC3)CC2)cc(OC)c1` (centres undefined), 0.98 µM.
`NC(=NCCc1ccc(Cl)cc1)c1ccc(Cl)c(Cl)c1`: the 50% inhibitory concentration (IC50) was determined as 1.1 µM. This IC50 and that of the compound before are within 1.5-fold of each other.
`COc1cc(C(C)C)ccc1N1CCN(CCCCNC(=O)c2ccc(NC(=O)c3ccc(Cl)cc3)cc2)CC1` had an IC50 of 0.58 µM.
In the case of `Cc1cc(C(=O)Nc2ccc(C)c(-c3nc(N(C(=O)c4ccc(F)c(C)c4)C4CCNCC4)nc4c3ccc(=O)n4-c3c(F)cccc3F)c2)ccc1F` it was 0.32 µM; in that of `CCCCCn1c(Sc2ccc(C#N)c([N+](=O)[O-])c2)nnc1-c1ccccc1`, 0.86 µM.
With `O=C(Nc1ccc(OC2CCN(Cc3ccsc3)C2)c(Cl)c1)c1ccsc1` (centres undefined), the IC50 is 1.02 µM.
`O=C(NCc1ccc(Cl)cc1)c1ccc(CN2CCCN(Cc3cccc(O)c3)CC2)cc1` came in with an IC50 of 1.17 µM.
`Oc1ccc2[nH]c(-c3cccc(F)c3)nc2c1CN1CCC(N2CCCC2)CC1` displayed an IC50 of 0.18 µM.
In the case of `N#CCSc1nnc(-c2ccccc2)c2ccccc12` it was 0.72 µM; in that of `O=C(NCCCN1CCOCC1)c1csc(Nc2ccc(Cl)c(Cl)c2)n1`, 0.92 µM.
In turn, `O=C(/C=C/c1ccc(Cl)cc1Cl)NCCCCCN1CCC(c2c[nH]c3ccccc23)CC1` showed an IC50 of 0.94 µM.
In the case of `Cc1ccc(N2CCc3c(-c4cc5cccnc5nc4C)cc(C)nc32)c(Cl)c1`, the IC50 turned out to be 0.58 µM. Compared with the last compound, the IC50 is about 1.6-fold lower.
For the compound `COc1ccc2nc(C)cc(NN=Cc3cccc(Cl)c3)c2c1`, the IC50 worked out at 0.63 µM. This IC50 and that of the compound before are within 1.5-fold of each other.
`Cc1nc2nc(N)nc(N)c2c(C)c1Cc1cccc(F)c1` displayed an IC50 of 0.34 µM. This IC50 is about 1.9-fold lower than that of the compound before.
In the case of `COc1ccc(N(c2nc(-c3cc(Cl)ccc3Cl)cs2)C2CCNCC2)cc1` it was 1.09 µM.
Consider `Cc1cccc(-n2c(Nc3ccc(C)c(Cl)c3)nc3ccc(S(=O)(=O)NC(C)C(C)C)cc32)c1` (centres undefined), for which the IC50 came out at 0.65 µM. Compared with the last compound, the IC50 is about 1.7-fold lower.
Compound `COc1csc2cc(Br)ccc12` yielded an IC50 of 0.86 µM.
Compound `Cc1[nH]c2ccccc2c1C1=CCN(CCCCC23CCCc4cccc(c42)NC3=O)CC1` (centres undefined) gave an IC50 of 0.23 µM. Against the preceding compound, the IC50 is about 3.7-fold lower.
As for `Cc1cccc(CNc2nc(C)cc(N[C@@H](Cc3ccccc3)C(=O)NCCOc3ccccc3)n2)c1`, the IC50 turned out to be 0.91 µM.
The compound `CCC(=O)N1CCc2cc(Br)cc(S(=O)(=O)N3CC(C)CC(C)C3)c21` (centres undefined) showed an IC50 of 0.93 µM.
With `CC(Oc1ccc(C(=O)c2ccc(F)cc2)cc1)C(=O)N1CCc2ccccc21` (centres undefined), the IC50 came out at 0.41 µM.
Compound `O=C(c1ccc(Cl)cc1)N1CCCC(C(=O)N(Cc2nnc(-c3ccccc3Cl)o2)C2CC2)C1` (centres undefined) yielded an IC50 of 0.23 µM.
For the compound `Nc1nc(N)c2c(CCc3ccc(Cl)c(Cl)c3)cccc2n1`, the IC50 amounted to 0.67 µM.
Regarding `CC(C)c1ccc(NC(=O)c2ccc(CN3CCCN(CC4CCCCC4)CC3)cc2)cc1`, the IC50 was 0.62 µM.
In the case of `CN1CCN(c2cc3c(cc2Cl)CCN3C(=O)Cc2ccc(NC(=O)Nc3cccc4ccccc34)cc2)CC1` it was 0.97 µM.
For the compound `Cc1cc(=O)c2cc(Oc3ccc(OC(F)(F)F)cc3)ccc2[nH]1`, the IC50 was 0.99 µM.
On to `COc1c(C2CCN(CCCCNC(=O)c3ccc(-c4ccc(C#N)cc4)nc3)CC2)ccc2c1CCCC2`, for which the IC50 was found to be 0.53 µM.
As to `C=CCOc1ccc2ccccc2c1CNCCCCCCNCc1c(OCC=C)ccc2ccccc12`, the IC50 is 0.86 µM.
With `COc1cc2nc(NCCc3ccccc3)nc(NCc3nccs3)c2cc1OC`, the IC50 is 0.53 µM.
Consider `CCc1cn2c3c(cc(C(=O)N[C@@H](Cc4ccccc4)[C@H](O)CNCC(C)C)cc13)N(C)S(=O)(=O)CC2`, for which the IC50 worked out at 0.04 µM.
In turn, `CC(C)CNC(=O)c1cncc(-c2cccc(CNC3Cc4ccccc4C3)c2)c1` came in with an IC50 of 0.79 µM.
On to `COc1ccc2nccc([C@@H](O)CN3CCC(NCc4cc5cccc(OCc6ccccc6)c5[nH]4)CC3)c2c1`, for which the IC50 came out at 0.9 µM.
To `CCc1cc(OC)ccc1C1CCN(CCCCNC(=O)c2ccc(NC(=O)c3ccc(Cl)cc3)cc2)CC1` belongs 1.07 µM; to `O=C(/C=C/c1ccc(Cl)c(Cl)c1)NCCCCN1CCC(c2c[nH]c3ccccc23)CC1`, 0.86 µM.
`CCCCCN1CCCC1CNS(=O)(=O)c1ccc(C(=O)Nc2ccc(C(F)(F)F)cc2)cc1` (centres undefined) yielded an IC50 of 0.84 µM.
On to `Cc1noc(=O)c2ccc(NC(=O)C(O)(CSc3ccccc3)CC(C)C)cc12` (centres undefined), for which the IC50 is 0.72 µM.
To `CCCNC[C@@H](O)[C@H](Cc1ccccc1)NC(=O)c1cc(NCC)cc(N2CCCC2=O)c1` belongs 0.76 µM; to `N#Cc1ccc2c(c1)CN(CCC1CCC(NC(=O)c3cc4cnccc4[nH]3)CC1)CC2` (centres undefined), 0.8 µM; to `CCCCCN1CCC(NS(=O)(=O)c2ccc(C(=O)Nc3cccc(C(F)(F)F)c3)cc2)C1` (centres undefined), 1 µM.
In the case of `S=C(NCCCCCN1CCC(c2c[nH]c3ccccc23)CC1)Nc1cccc(I)c1` it was 0.84 µM.
Compound `CCOc1ccc(/C=C/C(=O)Nc2cccc3c2CCN(C)C3)cc1` gave an IC50 of 1.11 µM.
In the case of `COc1ccc(CNC2CCN(C)CC2)cc1-c1ccc(S(=O)(=O)NCCc2ccccn2)s1`, the IC50 worked out at 0.62 µM.
`Cn1cncc1C(=O)Nc1cccc(-c2ccc(-c3nc4ccccc4[nH]3)s2)c1`: the IC50 came to 0.8 µM.
Regarding `Clc1cccnc1N1CCN(c2ncccc2Cl)CC1`, the IC50 came to 0.15 µM.
Turning to `COc1ccc(CCNCCCCCNCCc2ccc(Cl)cc2)cc1OC`, the IC50 is 0.74 µM.
To `Cc1cccc(C(=O)Nc2ccnc(N3CCC(N(C)Cc4ccccc4)CC3)c2)c1` belongs 0.96 µM.
In turn, `CCOC(=O)c1ccc(OCc2ccc(-c3ccccc3)cc2)cc1` displayed an IC50 of 0.81 µM.
To `CCOC(=O)C(C#N)NC(=O)C=Cc1ccccc1` (centres undefined) belongs 0.8 µM; to `Cc1cccc(C(=O)Nc2ccnc(N3CCC(N(C)Cc4cccc(O)c4)CC3)c2)c1`, 0.92 µM.
For `Cn1cnc(CCNC(=O)c2ccc(-c3ccc(-c4nc5ccc(C(F)(F)F)cc5[nH]4)s3)cc2)c1`, the IC50 is 0.4 µM.
Compound `COc1cc(NC(=O)/C=C/c2cc3ccccc3n2C)ccc1OCCN(C(C)C)C(C)C` yielded an IC50 of 0.39 µM.
With `CC(Nc1ccnc2cc(Cl)ccc12)c1ccc(S(N)(=O)=O)cc1` (centres undefined), the IC50 stood at 0.93 µM.
Take `CCN(CC)Cc1ccc2c(=O)cc(CCc3cccc(F)c3F)n(CC(=O)N(Cc3ccc(-c4ccc(C(F)(F)F)cc4)cc3)C(C)C)c2c1`: the IC50 was determined as 0.78 µM.
